The source of these data is patent US7090834B1, “Vascular endothelial cell growth factor variants and uses thereof” (Genentech, Inc., priority 1999, dated 2006).

Experiment [1] deals with ERK1 and ERK2 in HUVEC cells. Briefly: Activation of MAP kinases, ERK1/ERK2 phosphorylation Western blot. The format is cell-based, human. The following applies: 50 ng/ml or 10 ng/ml, 5 minutes, FIG. 12A. The protocol: Passage 4–7 HUVEC cells (Cell Systems, Kirkland, Wash.) were grown in Cell System's complete medium (AZ0-500) with 10% fetal calf serum and growth factors on gelatin-coated dishes and made quiescent by 14 hour starvation in 0.2% serum. […] The HUVEC cells were then lysed in 0.5–1 ml RIPA buffer containing 0.1 mM sodium orthovanadate, 5 mM para-nitrophenylphosphate, 10 mM sodium fluoride, 0.5 micromolar okadaic acid and a protease inhibitor cocktail (Roche MB 1836145). Western blot analysis was then conducted, probing for phosphorylated ERK1 or ERK2 using anti-phospho ERK antiserum (Promega).
On the technique in general: In western blotting, separated proteins are transferred to a membrane and probed.

Experiment [2] relates to p38 stress-activated MAP kinase in HUVEC cells. Briefly: p38 MAP kinase phosphorylation Western blot. The note with it: 50 ng/ml or 10 ng/ml, 5 minutes, FIG. 12B. The format is cell-based, human. The protocol:
VEGF has previously been reported to stimulate the stress-activated, p38 MAP kinase [Rousseau et al., Oncogene, 15:2169–2177 (1997); Yu et al., J. Cell. Phys., 178:235–246 (1999)].
Passage 4–7 HUVEC cells (Cell Systems, Kirkland, Wash.) were grown in Cell System's complete medium (AZ0-500) with 10% fetal calf serum and growth factors on gelatin-coated dishes and made quiescent by 14 hour starvation in 0.2% serum. […] The cells were then lysed in 0.5–1 ml RIPA buffer containing 0.1 mM sodium orthovanadate, 5 mM para-nitrophenylphosphate, 10 mM sodium fluoride, 0.5 micromolar okadaic acid and a protease inhibitor cocktail (Roche MB 1836145). The phosphorylation state of p38 stress-activated MAP kinase was assessed with an anti-phospho p38 specific antiserum (NEB).

For a further experiment, the system named is PLC-gamma in HUVEC cells. Briefly: PLC-gamma tyrosine phosphorylation after immunoprecipitation. The experiment is classed as cell-based, human. The note with it: 20 ng/ml, 5 minutes, FIG. 13A. How it is done:
In order to determine which VEGF receptor(s) are involved in PLC-gamma activation in primary endothelial cells, HUVEC cells were treated with native VEGF or VEGF receptor-selective variants and PLC-gamma phosphorylation was assessed after immunoprecipitation.
Passage 4–7 HUVEC cells (Cell Systems, Kirkland, Wash.) were grown in Cell System's complete medium (AZ0-500) with 10% fetal calf serum and growth factors on gelatin-coated dishes and made quiescent by 14 hour starvation in 0.2% serum. […] The cells were then lysed in 0.5–1 ml RIPA buffer containing 0.1 mM sodium orthovanadate, 5 mM para-nitrophenylphosphate, 10 mM sodium fluoride, 0.5 micromolar okadaic acid and a protease inhibitor cocktail (Roche MB 1836145). PLC-gamma was then immunoprecipitated from whole cell lysates using monoclonal antibodies (Upstate Biotechnology) and analyzed for tyrosine phosphorylation (FIG. 13A) or lysates were immunoprecipitated with monoclonal antibodies against p85 PI 3′-kinase (purchased from Transduction Labs (P13020) and Neomarkers (MS424-P)) and tested for phosphotyrosine using phosphotyrosine antibodies PY20 or E120H (Transduction Labs) (FIG. 13B). Immunoprecipitation was conducted as follows. Protein A/G beads (Pierce) were blocked for nonspecific protein binding in 50 mM HEPES pH 7.2, 0.1% TX-100, 150 mM NaCl and 1 mg/ml ovalbumin for 30 minutes. Antibodies were precoupled in the same buffer for 1 hour at 4° C. with head over end rotation and beads were washed 3 times in lysis buffer. Beads were added to the lysates and rotated overnight. Beads were washed sequentially in 50 mM Tris pH 7.6, 150 mM NaCl, 1% TX-100, 1 mM CaCl2; 50 mM Tris pH 7.6, 500 mM NaCl, 0.1% TX-100, 1 mM CaCl2 and 50 mM Tris pH 7.6, 150 mM NaCl, 0.05% TX-100, 1 mM CaCl2. Beads were then resuspended in 2× sample buffer and boiled. Supernatants were applied directly to 4–12% Tris-Glycine gradient gels (Novex).

The next experiment relates to HUVEC cells. In words: HUVEC migration, modified Boyden chamber assay. The note with it: 18 hour assay, FIG. 14A. The experiment is classed as cell-based, human. The protocol: One of the central aspects of VEGF action on endothelial cells is its ability to act as a chemoattractant and stimulate the migration of endothelial cells. HUVEC cell migration was analyzed in a modified Boyden chamber assay as follows.
Falcon 8.0 micron filter inserts (Falcon 3097) were coated with type 1 collagen (VITROGEN, COHESION). HUVEC (obtained from Cell Systems, <passage 8) were grown in Cell Systems complete media (4ZO-500) with 10% FCS. Cells were trypsinized and transferred to EBM (Endothelial basal media, Clonetics) with 0.1% BSA for the assay. Cells were plated at 5×10^4 per upper chamber. […] The assay was routinely an 18 hour assay at 37° C. For the LY294002 inhibitor experiments, cells were allowed to adhere for 30 minutes prior to addition of the inhibitor. 20 minutes after inhibitor addition, VEGF was added to the bottom well and the assay was allowed to proceed for only 4 hours to avoid the occurrence of apoptosis associated with the treatment of these primary cells with LY294002 (purchased from Biomol).
Cells were removed from the upper side of the membrane by scraping with a polyurethane swab and then the remaining cells on the bottom side of the membrane were fixed with methanol. Cells were stained with Yo-Pro Iodide nuclear stain (Molecular Probes) and counted under low power fluorescence using an Image-Pro cell recognition program.

The next experiment concerns corneal angiogenesis. Briefly: Corneal pocket angiogenesis assay. The experiment is classed as in vivo, Sprague-Dawley rats. The note with it: rat, pellet with 200 ng growth factor, day 6, FIGS. 15A and 15B. The protocol: Assays were performed as described by Polyerini et al., Methods Enzymol., 198:440–450 (1991) with the following modifications. Sprague-Dawley rats were anesthetized using a gas (isoflurane)/injectable ketamine (80 mg/kg)/xylazine (15 mg/kg) combination. The eyes were gently proptosed and secured in place using nontraumatic forceps. With a #15 blade, a 1.5 mm incision was made slightly below the center of the cornea. Using a micro spatula (ST80017, ASSI), the incision was carefully blunt-dissected through the stroma toward the outer canthus of the eye. […] After surgery, the eyes were coated with gentamicin ointment. At day 6, the animals were injected with high molecular weight FITC-dextran and euthanized to allow for visualization of the vasculature. Corneal whole mounts were made of the enucleated eyes and measurements of the neovascular area completed using computer-assisted image analysis (Image-Pro Plus).

The next experiment has as its system KDR receptor. Briefly: RIA assay, binding to KDR receptor. The following applies: compared to native VEGF, FIG. 8A. How it is done: (§1) Various assays were conducted to examine the properties and biological activities of the I43A/I46A/Q79A/I83A Flt-sel variant. For example, quantitative binding measurements were carried out using a soluble radio-immuno receptor-binding assay (RIA), as described in Example 6 above.

For another experiment, the system named is Flt-1 receptor. In words: RIA assay, binding to FLT-1 receptor. The note with it: FIG. 8B. The protocol:
as §1

The target of experiment [3] is T1, KDR transfected NIH3T3 cells (Homo sapiens, UniProt P35968).
T1 construct: expressed in transfected cells; host or cells: NIH3T3 cells
In words: Receptor-transfected cell binding assay, KDR. The note with it: displacement of 125I-VEGF, 4° C., three hours, FIG. 5. How it is done: (§2) The assay is described in detail in Example 7. Each point represents the average of duplicate determinations, and errors are estimated to be less than 15% of the values.
(§3) KDR or Flt-1 transfected NIH3T3 cells were prepared as described by Fuh et al., J. Biol. Chem., 273:11187–11204 (1998). The transfected cells were maintained in F12 media supplemented with 10% FBS and 400 ug/ml G418 (GibcoBRL). For the binding assays, the cells were plated in 12-wells plates at 1×10^6/well to reach confluency next day. The cells were then washed and blocked in Hank's buffered saline (HBS) with 1% BSA for one hour before adding ^125I-VEGF (1–109) (prepared by standard chloramine-T methods) and increasing concentrations of unlabeled VEGF variants. 50 pM and 10 pM of labeled VEGF (1–109) was used for KDR and Flt-1 cell binding, respectively. The plates were incubated at 4° C. for three hours and then washed two times with HBS with 0.5% BSA. The bound, labeled VEGF was collected by solubilizing the washed cells with 1N NaOH, and then counted in a gamma-counter (Isodata, ICN).
In general terms: In a radioligand displacement assay an active substance lowers the binding of a labelled ligand.

Experiment [4] has as its target T2, Flt-1 transfected NIH3T3 cells (Homo sapiens, UniProt P17948).
T2 construct: expressed in transfected cells; host or cells: NIH3T3 cells
In words: Receptor-transfected cell binding assay, Flt-1. The note with it: FIG. 6. How it is done: as §2, §3

For experiment [5], the system named is MMP-9 secretion by human aorta smooth muscle cells (ASMC). Briefly: Matrix metalloprotease 9 assay (gelatin zymography). The following applies: 40 ng/ml, 24 hours, compared to native VEGF(1–109) or PlGF, FIG. 11. The experiment is classed as cell-based. The protocol:
An assay that measures the secretion of matrix metalloprotease 9 following activation of Flt-1 expressed on human smooth aorta muscle cells was conducted (Wang and Keiser, Circ. Res., 83:832–840 (1998)). Human aorta smooth muscle cells (ASMC) (Clonetics) were maintained in SM2 media (Clonetics) at 37° C. in 5% CO2 and 95% ambient air in the presence of 10% fetal bovine serum in 6-well polystyrene plates (Becton-Dickinson). When, cells attained 90% confluence, they were growth-arrested for 24 hours in serum-free medium containing 0.2% bovine serum albumin (BSA). […] After electrophoresis, proteins were renatured by incubation of the gels for 30 minutes at room temperature in Renaturing Buffer and in Developing Buffer (Novex) for overnight at 37° C. The gels were stained with 0.25% Coomassie Brilliant Blue (Sigma). Gelatinase activity was identified as lightly stained or clear bands following destaining.
Shown is a representative zymogram of one of two independent experiments. Fold change represents the relative band density of the VEGF(1–109)-, VEGF(1–109) variants- or PlGF-treated groups versus the vehicle-treated (PBS) control.

KDR receptor, sequence (P35968 20-327 limits assumed): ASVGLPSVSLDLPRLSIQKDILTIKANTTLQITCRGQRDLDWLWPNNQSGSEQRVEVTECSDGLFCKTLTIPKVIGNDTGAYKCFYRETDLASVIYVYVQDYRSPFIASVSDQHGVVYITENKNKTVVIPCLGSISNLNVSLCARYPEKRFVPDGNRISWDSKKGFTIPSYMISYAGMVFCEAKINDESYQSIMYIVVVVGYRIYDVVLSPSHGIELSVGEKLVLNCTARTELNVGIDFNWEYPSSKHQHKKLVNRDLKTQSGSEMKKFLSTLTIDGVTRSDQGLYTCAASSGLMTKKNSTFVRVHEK
T1 sequence (P35968 20-1356): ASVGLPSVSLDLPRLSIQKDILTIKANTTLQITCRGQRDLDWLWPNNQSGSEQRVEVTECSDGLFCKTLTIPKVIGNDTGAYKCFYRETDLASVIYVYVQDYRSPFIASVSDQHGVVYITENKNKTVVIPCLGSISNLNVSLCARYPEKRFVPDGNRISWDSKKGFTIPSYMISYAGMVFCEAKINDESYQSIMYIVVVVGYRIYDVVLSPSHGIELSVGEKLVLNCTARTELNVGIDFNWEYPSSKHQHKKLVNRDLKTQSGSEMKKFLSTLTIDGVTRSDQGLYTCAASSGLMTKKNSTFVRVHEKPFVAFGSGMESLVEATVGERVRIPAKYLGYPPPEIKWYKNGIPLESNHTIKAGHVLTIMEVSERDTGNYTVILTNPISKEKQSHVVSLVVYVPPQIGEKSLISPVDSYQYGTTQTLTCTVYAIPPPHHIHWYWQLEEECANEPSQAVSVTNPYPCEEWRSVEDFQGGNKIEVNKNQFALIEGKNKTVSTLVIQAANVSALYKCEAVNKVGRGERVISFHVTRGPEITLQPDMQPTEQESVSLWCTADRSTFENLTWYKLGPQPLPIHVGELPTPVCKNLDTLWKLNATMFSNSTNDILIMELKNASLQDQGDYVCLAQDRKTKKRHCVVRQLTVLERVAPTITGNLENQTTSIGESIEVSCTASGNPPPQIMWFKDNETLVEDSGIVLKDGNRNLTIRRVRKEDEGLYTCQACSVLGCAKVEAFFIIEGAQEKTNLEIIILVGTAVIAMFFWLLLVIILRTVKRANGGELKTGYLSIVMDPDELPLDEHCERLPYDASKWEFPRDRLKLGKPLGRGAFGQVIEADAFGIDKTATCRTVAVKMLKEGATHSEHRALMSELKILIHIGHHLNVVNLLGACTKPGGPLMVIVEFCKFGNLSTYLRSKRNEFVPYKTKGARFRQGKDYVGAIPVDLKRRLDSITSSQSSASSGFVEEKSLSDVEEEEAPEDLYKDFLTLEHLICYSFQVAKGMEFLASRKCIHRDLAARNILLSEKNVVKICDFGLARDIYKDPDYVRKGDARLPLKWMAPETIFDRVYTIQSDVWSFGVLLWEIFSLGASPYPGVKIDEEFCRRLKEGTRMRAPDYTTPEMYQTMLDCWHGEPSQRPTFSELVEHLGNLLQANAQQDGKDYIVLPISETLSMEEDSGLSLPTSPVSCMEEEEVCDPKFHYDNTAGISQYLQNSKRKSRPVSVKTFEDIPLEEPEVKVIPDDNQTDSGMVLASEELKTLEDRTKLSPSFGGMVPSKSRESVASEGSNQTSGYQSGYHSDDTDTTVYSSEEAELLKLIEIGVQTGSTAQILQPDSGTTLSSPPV
T2 sequence (P17948 27-1338): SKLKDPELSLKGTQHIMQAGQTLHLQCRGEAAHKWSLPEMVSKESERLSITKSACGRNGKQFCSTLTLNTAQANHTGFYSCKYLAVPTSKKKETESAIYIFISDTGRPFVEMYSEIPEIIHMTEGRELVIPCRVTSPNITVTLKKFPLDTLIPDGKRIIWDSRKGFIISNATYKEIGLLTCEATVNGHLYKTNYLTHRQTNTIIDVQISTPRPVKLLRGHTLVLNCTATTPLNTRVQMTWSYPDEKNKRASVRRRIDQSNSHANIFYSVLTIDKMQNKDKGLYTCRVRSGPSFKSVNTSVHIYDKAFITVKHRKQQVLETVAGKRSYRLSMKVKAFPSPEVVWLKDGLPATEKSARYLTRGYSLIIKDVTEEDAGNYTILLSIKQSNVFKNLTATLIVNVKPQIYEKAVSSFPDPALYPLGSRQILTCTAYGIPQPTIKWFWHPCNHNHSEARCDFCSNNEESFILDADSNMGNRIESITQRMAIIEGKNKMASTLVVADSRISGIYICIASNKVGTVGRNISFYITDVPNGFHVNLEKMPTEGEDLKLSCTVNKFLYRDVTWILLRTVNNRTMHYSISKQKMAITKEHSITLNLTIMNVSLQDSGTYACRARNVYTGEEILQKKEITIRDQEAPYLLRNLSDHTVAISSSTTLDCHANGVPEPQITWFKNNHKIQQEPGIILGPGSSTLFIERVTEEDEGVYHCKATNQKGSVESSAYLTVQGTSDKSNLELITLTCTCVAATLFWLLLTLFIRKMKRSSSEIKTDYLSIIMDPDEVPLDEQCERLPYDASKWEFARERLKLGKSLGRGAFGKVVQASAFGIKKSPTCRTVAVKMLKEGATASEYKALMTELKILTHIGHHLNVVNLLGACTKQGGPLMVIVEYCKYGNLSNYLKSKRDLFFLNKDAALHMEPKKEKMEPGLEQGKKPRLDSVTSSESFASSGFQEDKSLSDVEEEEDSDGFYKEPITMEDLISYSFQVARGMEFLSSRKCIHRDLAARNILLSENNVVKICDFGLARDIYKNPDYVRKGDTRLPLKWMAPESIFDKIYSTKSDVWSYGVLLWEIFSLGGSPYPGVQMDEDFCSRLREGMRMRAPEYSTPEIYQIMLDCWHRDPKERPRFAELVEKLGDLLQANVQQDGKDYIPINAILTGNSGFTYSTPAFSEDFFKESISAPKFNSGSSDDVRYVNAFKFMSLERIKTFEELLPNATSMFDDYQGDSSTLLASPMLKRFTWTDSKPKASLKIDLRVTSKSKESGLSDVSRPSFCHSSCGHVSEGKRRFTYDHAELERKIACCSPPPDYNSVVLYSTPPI
Flt-1 receptor, sequence (P17948 27-331 limits assumed): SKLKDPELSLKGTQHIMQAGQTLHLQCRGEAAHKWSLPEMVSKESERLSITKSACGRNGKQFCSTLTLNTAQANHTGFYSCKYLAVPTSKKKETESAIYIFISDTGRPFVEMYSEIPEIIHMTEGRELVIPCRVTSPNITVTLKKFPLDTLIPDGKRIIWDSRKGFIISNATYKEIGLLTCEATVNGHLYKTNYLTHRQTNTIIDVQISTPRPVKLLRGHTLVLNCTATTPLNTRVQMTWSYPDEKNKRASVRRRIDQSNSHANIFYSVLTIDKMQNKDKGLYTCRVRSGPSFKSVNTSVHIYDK

Regarding “LK-VRB-2f: full length 1–165 VEGF variant with D63S/G65M/L66R”, the “phosphorylation of ERK1 and ERK2” value in experiment [1] was “triggered phosphorylation of ERK1 and ERK2”. Besides, the p38 phosphorylation entry in experiment [2] is reported as “able to stimulate p38 phosphorylation”. The PLC-gamma phosphorylation result in the experiment with PLC-gamma in HUVEC cells is “able to stimulate PLC-gamma phosphorylation to a similar extent”. For the same molecule, the “promotion of HUVEC cell migration” value with HUVEC cells is on record as “as effective as the native VEGF”. Further, the “induction of corneal angiogenesis” value in the experiment on corneal angiogenesis is recorded as “as efficient as native VEGF in inducing corneal angiogenesis”.

B1: Flt-sel: VEGF (1–109) variant with alanine substitutions at Ile 43, Ile 46, Gln 79 and Ile 83; Flt-1 selective (protein)
chain: APMAEGGGQNHHEVVKFMDVYQRSYCHPIETLVDIFQEYPDEAEYAFKPSCVPLMRCGGCCNDEGLECVPTEESNITMAIMRAKPHQGQHIGEMSFLQHNKCECRPKKD
Consider B1, for which the “fold reduced KDR-binding affinity (RIA)” value in the experiment on KDR receptor was “at least 470 fold”. In addition, the “affinity for Flt-1 compared to native protein (RIA)” value with Flt-1 receptor is reported as “essentially identical to that of the native protein”. Further, the “binding to KDR-transfected NIH3T3 cells” value in [3] is on record as “no detectable binding”. Besides, the “binding to Flt-1-transfected cells” value in [4] was “slightly improved binding”. Moreover, the “stimulation of MMP-9 secretion” value in experiment [5] is “fully active”.
